Patent US5747253A, “Combinatorial oligomer immunoabsorbant screening assay for transcription factors and other biomolecule binding” (Isis Pharmaceuticals, Inc., priority 1995, dated 1998)

What was measured:
gag-pol stem loop = assay: Gel shift analysis of RNA oligonucleotide sets binding to HIV gag-pol stem loop (triple strand); settings: 100 mM NaCl, 25 mM TRIS acetate pH5, 2 mM MgCl2, 1 mM spermidine
Description: Binding to double stranded DNA or RNA is possible by formation of a three stranded complex with the incoming third strand binding in the major groove of the duplex RNA or DNA. The molecular nature of the interaction between the oligomer and target need not be known in order to practice the technique. Thus, it is possible that novel interactions between oligomers and DNA or RNA will be responsible for binding. One of the limitations in the design of triple strand interactions is the need to have a long stretch of homopurines as a target. The 3' (right) side of the gag-pol stem loop is homopurine except for a pair of cytosines near the bottom of the stem. To determine the best oligonucleotide to bind to the gag-pol stem loop, a group of RNA oligonucleotide sets was designed to bind to the purine-rich strand of the gag-pol stem-loop by Hoogstein base pairing and prepared in accordance with Examples 2 and 6. Binding to the gag-pol stemloop was measured by gel shift analysis as previously described in Example 8 with the following modifications: the radiolabeled gag-pol RNA was incubated with the oligonucleotide in 100 mM NaCl, 25 mM TRIS acetate pH5, 2 mM Mg Cl2, 1 mM spermidine. The gel was a 15% acrylamide with 50 mM NaCl 2 mM MgCl2 added to the running buffer.

c-rel = assay: Capture assay for c-rel binding (streptavidin plates, Jurkat nuclear extract); settings: library pools at 1 μM; native binding site at 100 nM
Procedure: Crude nuclear extracts were prepared as detailed by Franza, et al., Nature 1987, 330, 391, from Jurkat cells stimulated 4 hours with 1 μM PHA and 100 nM PMA to induce the expression of rel. The extract was then preabsorbed with 100 μl streptavidin agarose per ml for 10 minutes. This was followed with the addition of poly dI.dC as a non specific competitor at a concentration of 100 μg/ml of extract.
Phosphorothioate oligonucleotides were synthesized with the sequence […]-B (SEQ ID NO: 22) and […]-B (SEQ ID NO:23), where B=biotin, as described in Examples 3 and 9. The complementary oligonucleotides were then hybridized to create the double stranded NF-kB binding site, which was used as a positive control in the assay. A combinatorial phosphorothioate library was also synthesized with the general sequence TNNNXNNNT-B, where X=A, G, C, or U as described in Examples 3 and 6.
Each pool of the library was incubated in triplicate at a concentration of 1 μM with 100 μl of the extract for 20 minutes at room temperature. As a positive control, the native double stranded NF-kB binding site was incubated at 100 nM with the same amount of extract. Following the incubation each mixture was added to streptavidin coated microtiter plates (Elkay Lab Systems) and incubated 20 minutes. […] Color development was measured 2 hours later by reading absorbance at 405 nm on a Titertek Multiscan ELISA plate reader.

HIV-tat protein [1] = assay: Capture assay for HIV-tat binding; settings: phosphorothioate library pools at 100 nM
Procedure: As a positive control, the native double stranded NF-kB binding site was incubated at 100 nM with the same amount of extract. Following the incubation each mixture was added to streptavidin coated microtiter plates (Elkay Lab Systems) and incubated 20 minutes. Unbound molecules were washed away with PBS. 10 μl of PBS plus 5% fetal calf serum was added to each well for 20 minutes at room temperature followed by aspiration and addition of 100 μl of 1:500 tat antisera in PBS plus 1% FCS for 2 hours at room temperature. The wells were then washed with PBS and 100 μl of 1:5000 Protein A/G-alkaline phosphatase (Pierce) added in PBS for 2 hours at room temperature. […] Color development was measured 2 hours later by reading absorbance at 405 nm on a Titertek Multiscan ELISA plate reader.
This and all other steps were carried out at room temperature. […] Protein A/G-alkaline phosphatase was bound to the tat antibodies followed by the addition of the PNPP substrate and quantitation of A 405 as detailed in Example 33.
Each pool of the phosphorothioate combinatorial library described in Example 33 was incubated at a concentration of 100 nM with tat protein as described in Example 34. Following incubation of the protein with the library pools, the complexes were captured on streptavidin plates and binding quantitated as in Example 33. […]

HIV-tat protein [2] = assay: Competition assay for HIV-tat binding against ΔTAR-B; settings: RNA library pools at 1 μM, 10 μM and 100 μM; ΔTAR-B 100 nM
Description: A truncated version (residues 16-45; ΔTAR) of the TAR hairpin previously shown to bind tat was synthesized using 2'-O-methyl oligonucleotides as described in Example 4 and was biotin conjugated on the 3' end (ΔTAR-B) as described in Example 9. A combinatorial library was synthesized using RNA oligonucleotides with the sequence CCA NNX NNNNGCCUGGGAGCNNNNUGG, where X=A (SEQ ID NO:24), G (SEQ ID NO:25), C (SEQ ID NO:26), or U (SEQ ID NO:27) as described in Example 2 and 6.
The pools of the library at 0, 1, 10, or 100 μM were incubated with 100 μl of purified recombinant tat transcription factor (Repligen) at a concentration of 20 pg/μl for 15'. This and all other steps were carried out at room temperature. The competitor, ΔTAR-B, was then added at a concentration of 100 nM. Following a 20' incubation, the mixture was bound to streptavidin-coated microtiter plates as in Example 33. After the non-bound molecules were washed away with PBS, 100 μl of 1:500 tat antisera was added to each well for 2 hours. Protein A/G-alkaline phosphatase was bound to the tat antibodies followed by the addition of the PNPP substrate and quantitation of A 405 as detailed in Example 33.
In the competition mode library pools which bind the transcription factor prevent binding to the natural target (in this case the competitor ΔTAR) also present in the assay. […]

| Substance | Kd (gag-pol stem loop) [µM] | other results |
| --- | --- | --- |
| A2: RNA oligonucleotide (CCCUUCCCAUC; RNA, backbone not given here) [Set A2] | 10 | – |
| B2: RNA oligonucleotide (CCCUUCCCGUC; RNA, backbone not given here) [Set B2] | 10 | – |
| C2: RNA oligonucleotide (CCCUUCCCCUC; RNA, backbone not given here) [Set C2] | 1 | – |
| D2: RNA oligonucleotide (CCCUUCCCUUC; RNA, backbone not given here) [Set D2] | 10 | – |
| native NF-kB binding site: double stranded biotinylated phosphorothioate NF-kB binding site, SEQ ID NO: 22 and 23, positive control (chain 1 GGGGACTTTCCGCTGGGACTTTCTAG; chain 2 CTGGAAAGTCCCAGCGGAAGGTCCCC; all phosphorothioate, sugars by position and methylation of C not given here; biotinylated) | – | amount of c-rel bound, in words (c-rel): binds the greatest amount of rel |
| pool fixed at G: RNA library pool CCA NNX NNNNGCCUGGGAGCNNNNUGG, X=G (CCANNGNNNNGCCUGGGAGCNNNNUGG; RNA, backbone and the base at N not given here) | – | amount of tat bound, in words (HIV-tat protein [1]): clearly binds more tat than the others; inhibition of tat binding to ΔTAR, in words (HIV-tat protein [2]): least effect |
